In publication PMC6290073, “Tropinone synthesis via an atypical polyketide synthase and P450-mediated cyclization” (Nature Communications, 2018):
Where two headings read alike, the source gives them in different places.

Columns and labels:
AbCYP82M3 = biological target: T1, AbCYP82M3 (Atropa belladonna, UniProt A0A3G4RHY7); settings: 1 mM NADPH, pH 7.0, ionic strength 0.05, 20% glycerol, 30 °C
T1 construct: gene CYP82M3

AbPYKS [1] = biological target: T2, AbPYKS (Atropa belladonna, UniProt A0A3G4RHW3); settings: substrate inhibition constant, 25 mM potassium phosphate pH 8.0, 30 °C
T2 construct: gene OGAS
T2 sequence (A0A3G4RHW3 1-392 limits assumed): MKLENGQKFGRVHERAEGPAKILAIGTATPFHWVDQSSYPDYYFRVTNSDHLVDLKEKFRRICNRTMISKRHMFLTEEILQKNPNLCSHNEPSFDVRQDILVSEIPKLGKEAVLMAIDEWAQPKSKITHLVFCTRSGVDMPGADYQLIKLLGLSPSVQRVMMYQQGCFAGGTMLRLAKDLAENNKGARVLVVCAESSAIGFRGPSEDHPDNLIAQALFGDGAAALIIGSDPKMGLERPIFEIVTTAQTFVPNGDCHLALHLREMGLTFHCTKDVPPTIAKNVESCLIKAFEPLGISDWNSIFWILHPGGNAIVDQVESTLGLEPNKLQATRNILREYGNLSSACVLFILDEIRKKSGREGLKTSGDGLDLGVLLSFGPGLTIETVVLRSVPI

AbPYKS [2] = biological target: T2, AbPYKS; settings: apparent; 0.1 mM malonyl-CoA, 25 mM potassium phosphate pH 8.0, 30 °C
[3] = tested on: CC(C)(COP(=O)(O)OP(=O)(O)OC[C@H]1O[C@@H](n2cnc3c(N)ncnc32)[C@H](O)[C@@H]1OP(=O)(O)O)[C@@H](O)C(=O)NCCC(=O)NCCSC(=O)CC(=O)O; assay: purified protein; settings: apparent, 0.05 mM N-methyl-Δ^1-pyrrolinium, 25 mM potassium phosphate pH 8.0, 30 °C

T1 sequence (A0A3G4RHY7 1-519): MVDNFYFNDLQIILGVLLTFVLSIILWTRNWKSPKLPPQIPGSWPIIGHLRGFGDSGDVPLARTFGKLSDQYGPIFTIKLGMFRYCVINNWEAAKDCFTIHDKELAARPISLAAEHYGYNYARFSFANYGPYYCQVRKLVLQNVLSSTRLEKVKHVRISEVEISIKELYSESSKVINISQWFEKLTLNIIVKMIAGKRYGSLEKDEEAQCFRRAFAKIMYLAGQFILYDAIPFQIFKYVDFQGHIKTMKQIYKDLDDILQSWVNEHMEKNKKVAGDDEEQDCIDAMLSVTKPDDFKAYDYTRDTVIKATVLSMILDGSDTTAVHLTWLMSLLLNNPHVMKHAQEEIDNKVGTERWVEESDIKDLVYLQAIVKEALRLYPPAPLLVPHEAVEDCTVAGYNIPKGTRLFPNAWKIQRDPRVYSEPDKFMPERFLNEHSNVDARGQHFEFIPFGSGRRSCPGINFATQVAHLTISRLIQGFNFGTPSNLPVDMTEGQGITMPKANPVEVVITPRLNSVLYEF

For `CN1CCCC1CC(=O)CC(=O)O` (racemic) [compound 5, 4-(1-methyl-2-pyrrolidinyl)-3-oxobutanoic acid], the Km (AbCYP82M3) was 631 ± 26 µM.

With `CC(C)(COP(=O)(O)OP(=O)(O)OC[C@H]1O[C@@H](n2cnc3c(N)ncnc32)[C@H](O)[C@@H]1OP(=O)(O)O)[C@@H](O)C(=O)NCCC(=O)NCCSC(=O)CC(=O)O` [Malonyl-CoA] the “K i /” value (AbPYKS [1]; 0.05 mM N-methyl-Δ^1-pyrrolinium) was 280 ± 0.9 µM.

In the case of `C[N+]1=CCCC1` [compound 4, N-methyl-Δ^1-pyrrolinium], the “K i /” value (AbPYKS [1]; 0.1 mM malonyl-CoA) is reported as 103 ± 16 µM and the Km (AbPYKS [2]) is reported as 10 ± 0.6 µM.

AbPYKS (Atropa belladonna) was tested, and the Km [3] was 12 ± 1 µM, the Vmax [3] was 13.8 µmol/min/mg and the kcat [3] was 10 ± 0.1 s⁻¹. It also gave a kcat/Km [3] of 848000 ± 90000 M⁻¹ s⁻¹.
